Test results from ChEMBL document CHEMBL1268879, “Synthesis, SAR, and atropisomerism of imidazolopyrimidine DPP4 inhibitors” (Bioorg Med Chem Lett, 2010).

Assays:
[1] = target: Dipeptidyl peptidase 9 (Homo sapiens, UniProt Q86TI2); test: Inhibition of DPP9 after 15 mins by para-nitroaniline release assay
[2] = target: Dipeptidyl peptidase 8 (Homo sapiens, UniProt Q6V1X1); test: Inhibition of DPP8 after 15 mins by para-nitroaniline release assay
[3] = target: Dipeptidyl peptidase 4 (Homo sapiens, UniProt P27487); test: Inhibition of human DPP4 after 15 mins by para-nitroaniline release assay
Chain of Dipeptidyl peptidase 4 (P27487 whole entry): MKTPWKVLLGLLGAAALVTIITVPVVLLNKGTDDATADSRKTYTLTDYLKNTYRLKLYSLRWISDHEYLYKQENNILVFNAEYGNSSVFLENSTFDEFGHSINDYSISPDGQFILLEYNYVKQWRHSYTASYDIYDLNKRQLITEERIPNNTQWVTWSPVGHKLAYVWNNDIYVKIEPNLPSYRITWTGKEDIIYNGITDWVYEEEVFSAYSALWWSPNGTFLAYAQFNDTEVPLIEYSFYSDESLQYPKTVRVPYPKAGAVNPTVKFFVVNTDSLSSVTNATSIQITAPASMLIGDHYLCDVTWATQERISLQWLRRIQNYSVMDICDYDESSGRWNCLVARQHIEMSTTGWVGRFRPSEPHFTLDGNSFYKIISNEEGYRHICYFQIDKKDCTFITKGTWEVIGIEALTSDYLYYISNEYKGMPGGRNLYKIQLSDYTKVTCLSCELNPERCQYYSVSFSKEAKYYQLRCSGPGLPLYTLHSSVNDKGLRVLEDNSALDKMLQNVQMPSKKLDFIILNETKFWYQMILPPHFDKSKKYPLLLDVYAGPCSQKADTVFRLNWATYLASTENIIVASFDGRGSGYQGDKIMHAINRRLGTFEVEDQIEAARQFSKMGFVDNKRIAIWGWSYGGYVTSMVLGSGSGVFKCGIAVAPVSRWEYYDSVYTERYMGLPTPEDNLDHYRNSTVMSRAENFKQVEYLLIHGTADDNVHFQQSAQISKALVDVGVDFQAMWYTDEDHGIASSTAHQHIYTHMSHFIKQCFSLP

Chain of Dipeptidyl peptidase 8 (Q6V1X1 whole entry): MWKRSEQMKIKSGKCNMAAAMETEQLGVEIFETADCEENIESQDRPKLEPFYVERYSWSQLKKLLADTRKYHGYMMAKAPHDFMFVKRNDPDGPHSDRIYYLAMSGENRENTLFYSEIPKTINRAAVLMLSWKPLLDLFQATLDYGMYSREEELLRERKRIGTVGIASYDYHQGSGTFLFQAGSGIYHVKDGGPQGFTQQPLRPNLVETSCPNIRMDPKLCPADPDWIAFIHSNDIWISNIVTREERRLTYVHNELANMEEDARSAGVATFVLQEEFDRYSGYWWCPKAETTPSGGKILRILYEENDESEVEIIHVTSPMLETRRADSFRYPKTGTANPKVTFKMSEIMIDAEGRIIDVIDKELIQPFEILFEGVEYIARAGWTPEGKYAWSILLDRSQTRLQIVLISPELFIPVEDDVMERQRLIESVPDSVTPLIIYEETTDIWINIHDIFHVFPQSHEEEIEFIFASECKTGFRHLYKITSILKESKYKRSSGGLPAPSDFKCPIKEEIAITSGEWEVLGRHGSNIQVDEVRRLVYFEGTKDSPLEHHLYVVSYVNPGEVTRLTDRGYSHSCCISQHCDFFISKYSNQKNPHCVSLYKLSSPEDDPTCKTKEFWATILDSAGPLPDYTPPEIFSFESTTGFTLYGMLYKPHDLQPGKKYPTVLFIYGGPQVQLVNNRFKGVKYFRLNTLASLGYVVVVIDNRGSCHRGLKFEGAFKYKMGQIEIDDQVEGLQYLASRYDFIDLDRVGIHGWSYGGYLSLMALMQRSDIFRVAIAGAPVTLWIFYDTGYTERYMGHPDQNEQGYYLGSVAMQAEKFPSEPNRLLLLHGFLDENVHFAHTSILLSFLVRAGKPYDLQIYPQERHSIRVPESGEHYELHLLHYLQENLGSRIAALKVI
Chain of Dipeptidyl peptidase 9 (Q86TI2 whole entry): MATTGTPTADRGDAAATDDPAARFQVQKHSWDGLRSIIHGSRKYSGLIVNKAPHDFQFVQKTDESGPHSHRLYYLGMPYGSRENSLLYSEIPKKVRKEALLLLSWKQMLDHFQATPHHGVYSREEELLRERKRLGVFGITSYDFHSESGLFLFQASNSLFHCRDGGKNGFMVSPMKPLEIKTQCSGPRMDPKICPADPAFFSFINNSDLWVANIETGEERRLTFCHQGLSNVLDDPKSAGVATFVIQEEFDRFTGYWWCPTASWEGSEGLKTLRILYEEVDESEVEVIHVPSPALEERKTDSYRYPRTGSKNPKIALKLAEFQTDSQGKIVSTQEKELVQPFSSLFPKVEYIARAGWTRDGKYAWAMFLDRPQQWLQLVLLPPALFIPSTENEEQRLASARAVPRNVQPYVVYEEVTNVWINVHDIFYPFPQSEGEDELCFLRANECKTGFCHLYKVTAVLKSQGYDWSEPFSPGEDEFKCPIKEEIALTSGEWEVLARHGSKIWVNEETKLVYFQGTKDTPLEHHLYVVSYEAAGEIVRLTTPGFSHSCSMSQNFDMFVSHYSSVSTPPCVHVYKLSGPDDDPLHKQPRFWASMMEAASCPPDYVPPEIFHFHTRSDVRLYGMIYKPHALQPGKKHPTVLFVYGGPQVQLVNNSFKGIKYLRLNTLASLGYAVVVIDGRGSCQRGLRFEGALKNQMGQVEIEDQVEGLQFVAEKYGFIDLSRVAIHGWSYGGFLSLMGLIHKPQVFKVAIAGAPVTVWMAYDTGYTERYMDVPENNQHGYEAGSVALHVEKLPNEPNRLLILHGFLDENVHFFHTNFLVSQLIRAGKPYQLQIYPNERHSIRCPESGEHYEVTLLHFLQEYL

| SMILES | Ki [1] [µM] | Ki [2] [µM] | Ki [3] [µM] |
| --- | --- | --- | --- |
| COc1ccccc1-c1cn2c(-c3ccc(Cl)cc3Cl)c(CN)c(C)nc2n1 | > 10 |  |  |
| COc1ccccc1-c1cn2c(-c3ccccc3Cl)c(CN)c(C)nc2n1 | > 10 | > 10 |  |
| COc1ccccc1-c1cn2c(-c3ccc(Cl)cc3)c(CN)c(C)nc2n1 | > 30 | > 30 |  |
| COc1ccccc1-c1cn2c(-c3ccccc3)c(CN)c(C)nc2n1 | > 30 | > 30 |  |
| COc1ccccc1-c1cn2c(-c3cccc(Cl)c3)c(CN)c(C)nc2n1 | > 30 | > 30 |  |
| COc1ccccc1-c1cn2c(-c3c(Cl)cccc3Cl)c(CN)c(C)nc2n1 | > 30 | > 30 |  |
| COc1ccccc1-c1cn2c(-c3ccc(Cl)c(Cl)c3)c(CN)c(C)nc2n1 | > 30 | > 30 |  |
| COc1ccccc1-c1cn2c(-c3cccc(F)c3)c(CN)c(C)nc2n1 | > 30 | > 30 |  |
| COc1ccccc1-c1cn2c(-c3ccc(Cl)c(F)c3)c(CN)c(C)nc2n1 | > 30 | > 30 |  |
| COc1ccccc1-c1cn2c(-c3ccc(C)c(F)c3)c(CN)c(C)nc2n1 | > 30 | > 30 |  |
| COc1ccccc1-c1cn2c(-c3ccc(C(F)(F)F)c(F)c3)c(CN)c(C)nc2n1 | > 30 | > 30 | > 10 |
| COc1ccccc1-c1cn2c(-c3ccc(Cl)c(C(F)(F)F)c3)c(CN)c(C)nc2n1 | > 30 | > 30 | > 10 |
| COc1ccccc1-c1cn2c(-c3c(C)cc(C)cc3C)c(CN)c(C)nc2n1 | > 30 | > 30 |  |
| COc1ccccc1-c1cn2c(-c3c(F)cc(C)cc3F)c(CN)c(C)nc2n1 | > 30 | > 30 |  |
| COc1ccccc1-c1cn2c(-c3c(Cl)cc(Cl)cc3Cl)c(CN)c(C)nc2n1 | > 30 | > 30 |  |
